The values below come from patent publication US20120101078A1, “AMIDE DERIVATIVES AS NEUROPEPTIDE Y5 RECEPTOR LIGANDS” (H. Lundbrck A/S, priority 2009, published 2012).

What is called Ki is a measure of affinity in units of concentration, obtained from inhibition or displacement.

The target in assay [1] is T1, NPY Y5 receptor (Homo sapiens, UniProt Q15761).
T1 sequence (Q15761 1-445): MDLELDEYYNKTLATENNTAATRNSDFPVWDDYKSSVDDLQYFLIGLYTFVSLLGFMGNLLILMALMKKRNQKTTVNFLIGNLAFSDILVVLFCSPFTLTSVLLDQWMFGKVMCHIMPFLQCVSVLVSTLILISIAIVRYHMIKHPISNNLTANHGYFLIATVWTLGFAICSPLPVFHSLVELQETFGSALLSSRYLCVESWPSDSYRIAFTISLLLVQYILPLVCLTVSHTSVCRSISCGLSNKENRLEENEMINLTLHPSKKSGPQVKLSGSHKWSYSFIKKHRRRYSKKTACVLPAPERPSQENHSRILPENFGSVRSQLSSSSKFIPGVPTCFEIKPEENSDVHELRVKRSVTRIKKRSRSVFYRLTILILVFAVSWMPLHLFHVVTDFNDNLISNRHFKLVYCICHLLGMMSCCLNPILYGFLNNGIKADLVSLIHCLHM
Description: Radioligand (125I-PYY) binding to membrane suspensions, cloned human NPY Y5 receptor. Details: expressed in transfected cells; host or cells: LM(tk-) cells (typically). The settings on record: 125I-PYY competition, membranes of transfected LM(tk-) cells; read-out: Ki, binding affinity of selected compounds. On the procedure: (§1) The pharmacological properties of the compounds of the present invention were evaluated at the cloned human NPY Y5 receptor using the protocols disclosed in U.S. Pat. No. 6,124,331, the contents of which are hereby incorporated by reference. The procedures for cell culture, transient transfection and membrane harvest, which are well known in the art, are described therein
Briefly, membrane suspensions from transfected cells (typically expressed in LM(tk-) cells) and ^125I-PYY radioligand (PerkinElmer, Waltham, Mass.) were diluted in binding buffer supplemented with 0.1% bovine serum albumin to yield an optimal membrane protein concentration so that ^125I-PYY bound by membranes in the assay was less than 10% of ^125I-PYY delivered to the sample (100,000 dpm/sample=0.08 nM for competition binding assays). Test compounds were diluted to desired concentrations with supplemented binding buffer in the presence of 30% DMSO. The binding assay was performed in 96-well polypropylene microtiter plates by mixing 125I-PYY test compound (25 μL), and finally, membrane suspensions (200 μL). Final DMSO=3%. Samples were incubated in at room temperature for about 120 min. Incubations were terminated by filtration over Whatman GF/C filters (pre-coated with 1% polyethyleneimine and air-dried before use), followed by washing with ice-cold binding buffer. Filter-trapped membranes were impregnated with MeltiLex solid scintillant (Wallac, Turku, Finland) and counted for ^125I-PYY in a Wallac MicroBeta Trilux. Non-specific binding was defined by 1000 nM porcine NPY. Specific binding was typically 80%; most non-specific binding was associated with the filter. Binding data were analyzed using nonlinear regression and statistical techniques available in the GraphPAD Prism package (San Diego, Calif.).

Assay [2] has as its target T1, NPY Y5 receptor. Description: NPY Y5-dependent inhibition of forskolin-stimulated cAMP accumulation. The format is cell-based. Set-up: expressed in transfected cells. The conditions noted are these: stably transfected cells, NPY then forskolin 10 uM, cAMP by HTRF. On the procedure:
as §1
Stably transfected cells were seeded into 96-well microtiter plates and cultured until confluent. To reduce the potential for receptor desensitization, the serum component of the media was reduced to 1.5% for 4 to 16 hours before the assay. Cells were washed in Hank's buffered saline, or HBS (150 mM NaCl, 20 mM HEPES, 1 mM CaCl2, 5 mM KCl, 1 mM MgCl2, and 10 mM glucose) supplemented with 0.1% bovine serum albumin plus 100 uM IBMX. […] The assay was then terminated and intracellular cAMP was quantified by with highthroughput time-resolved flourometry (HTRF kit from CisBio, Bedford, Mass.). The effect of the test compound on agonist (NPY) activity were analyzed using nonlinear regression and statistical techniques available in the GraphPAD Prism package (San Diego, Calif.). The compounds of Example 2a and 5b were determined to function as an antagonist at the NPY Y5 receptor.

The next assay addresses T2, Y5 receptor (Rattus norvegicus, UniProt Q63634).
T2 construct: host or cells: animals in vivo (i.c.v. injection of Y5 agonist)
T2 sequence (Q63634 1-445): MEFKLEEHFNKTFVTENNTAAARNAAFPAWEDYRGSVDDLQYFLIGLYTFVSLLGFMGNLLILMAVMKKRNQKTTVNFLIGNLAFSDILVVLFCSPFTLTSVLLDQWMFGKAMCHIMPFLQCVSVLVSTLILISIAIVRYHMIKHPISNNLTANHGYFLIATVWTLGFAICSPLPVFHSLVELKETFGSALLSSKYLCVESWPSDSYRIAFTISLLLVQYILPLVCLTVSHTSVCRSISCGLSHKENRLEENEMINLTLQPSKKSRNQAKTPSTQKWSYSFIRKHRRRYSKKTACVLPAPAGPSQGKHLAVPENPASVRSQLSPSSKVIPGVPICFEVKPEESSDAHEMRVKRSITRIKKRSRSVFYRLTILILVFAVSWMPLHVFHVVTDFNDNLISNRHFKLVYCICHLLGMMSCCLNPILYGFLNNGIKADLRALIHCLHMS
The conditions noted are these: increase elicited by i.c.v. injection of cPP(1-7), NPY(19-23),Ala31,Aib32, Gln34]; cited from earlier work.

The next assay relates to Sprague Dawley rats. The conditions noted are these: 3-30 mg/kg, p.o., acute or chronic treatment; cited from earlier work.
Assay [3] has as its system Flinders Sensitive Line rats. The conditions noted are these: chronic dosing 10 mg/kg/day, i.p.; cited from earlier work.
For assay [4], the system named is Flinders Sensitive Line rats. The settings on record: chronic dosing 10 mg/kg/day, i.p.; cited from earlier work. This is another data set of the same source.
The subject of another assay is Wistar rats. The settings on record: Wistar rats exposed to chronic mild stress, chronic dosing 3, 10 mg/kg/day, i.p.; cited from earlier work.

For `O=C1CCCN1[C@H]1CC[C@H](C(=O)Nc2ccc(-c3cc(F)cc(F)c3)cn2)CC1` [Example 1a, trans-4-(2-Oxo-pyrrolidin-1-yl)-cyclohexanecarboxylic acid [5-(3,5-difluoro-phenyl)-pyridin-2-yl]-amide], the Ki on NPY Y5 receptor [1] was 720 nM.
Regarding `O=C1OCCN1[C@H]1CC[C@@H](C(=O)Nc2ccc(-c3cc(F)cc(F)c3)cn2)CC1` [Example 2a, cis-4-(2-Oxo-oxazolidin-3-yl)-cyclohexanecarboxylic acid [5-(3,5-difluoro-phenyl)-pyridin-2-yl]-amide], at NPY Y5 receptor [2], the “function at the NPY Y5 receptor (effect on NPY agonist activity)” value is listed as “antagonist”. In addition, the inhibition constant Ki on NPY Y5 receptor [1] was 8 nM.
Turning to `O=C1OCCCN1[C@H]1CC[C@@H](C(=O)Nc2ccc(-c3cc(F)cc(F)c3)cn2)CC1` [Example 3a, cis-4-(2-Oxo-perhydro-1,3-oxazin-3-yl)-cyclohexanecarboxylic acid [5-(3,5-difluoro-phenyl)-pyridin-2-yl]-amide], at NPY Y5 receptor [1], the Ki was 6 nM.
For the compound `O=C1NCCCN1[C@H]1CC[C@@H](C(=O)Nc2ccc(-c3cc(F)cc(F)c3)cn2)CC1` [Example 4a, cis-4-(2-Oxo-tetrahydro-pyrimidin-1-yl)-cyclohexanecarboxylic acid [5-(3,5-difluoro-phenyl)-pyridin-2-yl]-amide], the inhibition constant Ki at NPY Y5 receptor [1] was 9 nM.
Consider `CN1CCCN([C@H]2CC[C@@H](C(=O)Nc3ccc(-c4cc(F)cc(F)c4)cn3)CC2)C1=O` [Example 5a, cis-4-(3-Methyl-2-oxotetrahydro-pyrimidin-1-yl)-cyclohexanecarboxylic acid [5-(3,5-difluoro-phenyl)-pyridin-2-yl]-amide], for which the inhibition constant (Ki) at NPY Y5 receptor [1] was 12 nM.
In the case of `CN1CCN([C@H]2CC[C@@H](C(=O)Nc3ccc(-c4cc(F)cc(F)c4)cn3)CC2)C1=O` [Example 5b, cis-4-(3-Methyl-2-oxo-imidazolidin-1-yl)-cyclohexanecarboxylic acid [5-(3,5-difluoro-phenyl)-pridin-2-yl]-amide], the “function at the NPY Y5 receptor (effect on NPY agonist activity)” value at NPY Y5 receptor [2] is on record as “antagonist”. The inhibition constant (Ki) on NPY Y5 receptor [1] is 3.8 nM.
Consider `O=C1COCCN1[C@H]1CC[C@@H](C(=O)Nc2ccc(-c3cc(F)cc(F)c3)cn2)CC1` [Example 6a, cis-4-(3-Oxo-morpholin-4-yl)-cyclohexanecarboxylic acid [5-(3,5-difluoro-phenyl)-pyridin-2-yl]-amide], for which, at NPY Y5 receptor [1], the Ki was 8 nM.
Take `CS(=O)(=O)NCC1CCC(Nc2nc3c(s2)CCSc2ccccc2-3)CC1` (stereo not drawn) [Lu AA33810]: on Y5 receptor, the “effect on increase in plasma ACTH” value is “attenuated increases” and the “effect on increase in plasma cortisol” value is on record as “attenuated increases”. Moreover, in the assay with Sprague Dawley rats, the “effect in social interaction test” value is recorded as “anxiolytic-like effects”. In addition, the “effect in social interaction test” value in assay [3] was “anxiolytic-like effects”. Moreover, the “effect in forced swim test” value in assay [4] is “antidepressant-like effects”. Besides, the “effect on stress-induced decrease in sucrose consumption” value in the assay on Wistar rats is “antidepressant-like activity”.
